From patent publication US20210138025A1, “CATIONIC PEPTIDES WITH IMMUNOMODULATORY AND/OR ANTI-BIOFILM ACTIVITIES” (priority 2018, published 2021) come the findings set out here.

Non-standard residues stand in square brackets, D forms with d. No end group written: not given here.

Test [1] relates to P. aeruginosa (PAO1). The experiment in a line: Biofilm inhibition, static microtitre plate assay, crystal violet (Table 17; FIG. 19). Conditions: BM2 minimal media.
Test [2] has as its system Salmonella typhimurium (ATCC 14028). Description: Biofilm inhibition, static microtitre plate assay, crystal violet (Table 17). Particulars: BM2 minimal media.
In test [3] the test system is S. aureus (methicillin resistant clinical isolate C623). The experiment in a line: Biofilm inhibition, static microtitre plate assay, crystal violet (Table 17; FIG. 19). Conditions: 10% tryptic soy broth with 0.1% glucose.
The subject of test [4] is E. coli O157:H7. Description: Biofilm inhibition, static microtitre plate assay, crystal violet (Table 17). Conditions: BM2 minimal media.

As for “KRKLVVKLRLWI ([dK][dR][dK][dL][dV][dV][dK][dL][dR][dL][dW][dI]) [RI-3006]”, the “peptide concentration that inhibited more than 90% of adhered biofilm biomass, P. aeruginosa (PAO1)” value in test [1] worked out at 4 µM. For the same sequence, the “peptide concentration that inhibited more than 90% of adhered biofilm biomass, S. typhimurium (ATCC 14028)” value in test [2] is 4 µM. Also, the “peptide concentration that inhibited more than 90% of adhered biofilm biomass, S. aureus (C623)” value in test [3] was determined as 8 µM. Moreover, the “peptide concentration that inhibited more than 90% of adhered biofilm biomass, E. coli (O157:H7)” value in test [4] stood at 4 µM.
Turning to “KVVWIKVKIKLV ([dK][dV][dV][dW][dI][dK][dV][dK][dI][dK][dL][dV]) [RI-3007]”, the “peptide concentration that inhibited more than 90% of adhered biofilm biomass, P. aeruginosa (PAO1)” value in test [1] worked out at 32 µM. In test [2], the “peptide concentration that inhibited more than 90% of adhered biofilm biomass, S. typhimurium (ATCC 14028)” value worked out at 16 µM. Further, in test [3], the “peptide concentration that inhibited more than 90% of adhered biofilm biomass, S. aureus (C623)” value came out at 16 µM. Moreover, in test [4], the “peptide concentration that inhibited more than 90% of adhered biofilm biomass, E. coli (O157:H7)” value amounted to 16 µM.
Take “RRWIRVAVILRV ([dR][dR][dW][dI][dR][dV][dA][dV][dI][dL][dR][dV]) [RI-1018, reference compound]”: in test [1], the “peptide concentration that inhibited more than 90% of adhered biofilm biomass, P. aeruginosa (PAO1)” value is 4 µM. In addition, the “peptide concentration that inhibited more than 90% of adhered biofilm biomass, S. typhimurium (ATCC 14028)” value in test [2] was found to be 2 µM. The “peptide concentration that inhibited more than 90% of adhered biofilm biomass, S. aureus (C623)” value in test [3] was determined as 8 µM. The “peptide concentration that inhibited more than 90% of adhered biofilm biomass, E. coli (O157:H7)” value in test [4] amounted to 1 µM.
As to “VLKIKVKIWVVK (not fully specified; also: D-amino acid(s), positions not given here) [Peptide D-3007]”, the “peptide concentration that inhibited more than 90% of adhered biofilm biomass, P. aeruginosa (PAO1)” value in test [1] was 8 µM. Further, the “peptide concentration that inhibited more than 90% of adhered biofilm biomass, S. typhimurium (ATCC 14028)” value in test [2] stood at 4 µM. Besides, the “peptide concentration that inhibited more than 90% of adhered biofilm biomass, S. aureus (C623)” value in test [3] was 8 µM. The “peptide concentration that inhibited more than 90% of adhered biofilm biomass, E. coli (O157:H7)” value in test [4] was found to be 4 µM.
